Measured values from patent US10328075B2, “Method of treatment and compounds for use therein” (Baker Heart and Diabetes Institute, priority 2015, dated 2019).
No end group written: not given here.

Tested on: myocardial I-R injury in C57BL/6 mice
Test: Myocardial I-R in mice: cardiac necrosis after 24 h reperfusion (infarct size, plasma cTnI)
Assay type: in vivo, mouse
Conditions: for Cardioprotection: Infarct size: Table 9; for Cardioprotection: isolated cardio-myocytes in vitro & intact heart subjected to MI in vivo; for Effect on plasma cTnI levels / Reduction of infarct size: small molecules 50 mg/kg i.p., Ac2-26 1 mg/kg i.v.
Description: Male C57BL/6 mice were breed and housed in the AMREP Animal Centre and maintained under a 12 h light/dark cycle. After anaesthesia (i.p., ketamine 80 mg/kg, xylazine 20 mg/kg and atropine 1.2 mg/kg), mice were randomly assigned to 24 h, 48 h and 7 days reperfusion groups and underwent reversible left arterial descending (LAD) ligation as described (Gao XM, 2011; JMCC, 50; Gao XM, 2000, JMCC). Following sedation, mice were intubated and ventilated (Harvard apparatus, MA, USA) with room air mixed with oxygen (tidal volume 0.25 mL, 150 breath/min), and placed on a heating pad. A left thoractomy will be made via the ˜third intercostal space, where the beating heart was located.
The LAD was reversibly ligated using 7-0 silk suture with a slipknot enclosing two releasing rings. Regional ischaemia was confirmed by pale colour of the ligated area. Air was then evacuated from the chest, the cavity was closed and normal respiration was restored. After 40-60 min of ischaemia, blood flow through the left coronary artery was re-established by releasing the slipknot. Sham-operated mice underwent identical surgical procedures except the coronary arteries were not ligated. Three cohorts of mice were scheduled. Cohort 1 was subjected to 40 min ischaemic-24 h reperfusion for the assessment of cardiac necrosis. Cohort 2 was subjected to 60 min occlusion with 48 h reperfusion for the quantification of cardiac and systemic inflammation. The last cohort was subjected to 7 d reperfusion and early cardiac fibrosis was assessed.
Treatment with study drugs: Animals were randomly assigned to different groups and all treatments were administrated 5 min prior to reperfusion of the LAD. The peptide Ac2-26 (1 mg kg^−1) (Chemieliva, Chongqing, China) and its vehicle (10% dimethyl sulfoxide (DMSO) in saline) were intravenously (i.v.) injected via the tail vein. […] Mice then received drug or vehicle injections daily until the experimental endpoint. The two different vehicles groups reflect different study drug solubility and administration routes.
Assessment of cardiac necrosis: The optimal time point for assessment of cardiac necrosis is 24 h reperfusion after an ischaemic insult. Plasma levels of cTnI were determined using a commercially available, high-sensitivity rat cTnI ELISA kit (Life Diagnostic Inc., Pennsylvania, USA) as per the manufacturer's instructions. To evaluate the size of the infarction in relation to the area-at-risk (AAR), infarct size (IS) and LV size, 2,3,5-triphenyltetrazolium chloride (TTC) staining was performed. The LAD was tightly re-occluded in anaesthetised mice after 24 h of reperfusion and Evans blue dye (0.1 mL, 5%) was injected as a bolus into the LV. The heart was then excised and rinsed in cold saline to remove excess dye. The LV was isolated, frozen at −20° C. and then cut transversely into six to seven slices at 1.0 mm thickness. LV slices were incubated for 45 min with 1.5% TTC solution at 37° C. The presence of Evans blue indicated perfusion, whereas its absence indicated lack of perfusion to that region, whereas the brick red areas indicate viable myocardium, white or yellowish regions demarcate necrotic tissue. The slices were mounted between glass slides, and images were acquired digitally using […] microscope (Leica Wild M3B, Heerbrugg, Switzerland) coupled with digital camera (Nikon Cool-PIX4500, Tokyo, Japan). The images were analyzed using Image J analysis program (Version 1.45S, National Institute of Health, USA). The non-ischaemic zone (blue area), area-at-risk zone (AAR, red and white or yellow areas), infarct zone (white or yellow areas) and total LV were outlined and quantified blindly. Infarct size was calculated as percentage of infarct zone/risk zone.
Animal Surgery: Adult C57BL/6 mice were randomly assigned to myocardial ischemia-reperfusion (I-R) injury or sham in vivo. […]

[1] = mice, 40 min ischaemia, 24 h reperfusion

Molecule | Cardioprotection: Infarct size (mice) | Cardioprotection | Effect on cardiac necrosis (cardioprotective action) 24 h post I-R (mice, 50 mg/kg i.p.) | Effect on infarct size (in words) (mice, 40 min ischaemia, 24 h reperfusion, 50 mg/kg i.p.) | Effect on plasma cTnI levels (mice, 24 h reperfusion) | Reduction of infarct size [1] | Reduction of infarct size (mice, 40 min ischaemia, 24 h reperfusion, listed as Cmpd17b)
Cc1cc(Cc2cccnc2)c(=O)n(CC(=O)Nc2ccc(Cl)cc2)n1 [MIPS-0010396] | ↓↓ | confers cardioprotection |  |  |  |  | 
CC(C)C1C(NC(=O)Nc2ccc(Cl)cc2)C(=O)N(c2ccccc2)N1C (stereo not shown) [BIDI-002] |  |  | lacked cardioprotective actions | not | not seen |  | 
Ac2-26: Annexin-A1 N-terminal peptide, peptide ANX-A1 mimetic (Ac-AMVSEFLKQAWFIENEEQEYVQTVK; UniProt P04083 2-26, looked up, fragment) |  |  |  |  | non-significant trend | ~25% | 
COc1cccc(Cc2cc(C)nn(C(C)C(=O)Nc3ccc(Br)cc3)c2=O)c1 (stereo not shown) [BIDI-001, N-(4-bromophenyl)-2-[5-(3-methoxybenzyl)-3-methyl-6-oxo-6H-pyridazin-1-yl]-propionamide] | ↓↓ | conferred cardioprotection | reduces cardiac necrosis |  | significantly reduced | ~34% | ~35%
